Values quoted from earlier work as cited in patent US8273732B2, “Compositions for combating beta-lactamase-medicated antibiotic resistance using beta-lactamase inhibitors useful for injection” (Venus Remedies Limited, priority 2004, dated 2012).
Converted amounts (≈) assume the structure as drawn. Where a name gives a salt, the structure may show the parent alone.

Key:
[1] = system: Acinetobacter baumannii; settings: 156 clinical isolates of A. baumannii

For `CC1(C)[C@H](C(=O)O)N2C(=O)C[C@H]2S1(=O)=O` [Sulbactam, sulbactam], the “MIC (90)” value [1] is listed as 32 µg/mL (≈ 137 µM).

For `CO/N=C(\C(=O)N[C@@H]1C(=O)N2C(C(=O)O)=C(CSc3nc(=O)c(=O)[nH]n3C)CS[C@H]12)c1csc(N)n1` [ceftriaxone sodium, (6R,7R)-7-[2-(2-amino-4-thiazolyl)glyoxylamido]-8-oxo-3-[[(1,2,5,6-tetrahydro-2-methyl-5,6-dioxo-as-triazin-3-yl)thio]methyl]-5-thia-1-azabicyclo[4.2.0]oct-2-ene-2-carboxylic acid, 7^2-(Z)-(O-methyloxime), disodium salt, sesquaterhydrate], the solubility in ethanol (ethanol) is listed as “very slightly soluble”, the solubility in methanol (methanol) is listed as “sparingly soluble” and the solubility in water (water) is listed as “readily soluble”.
